Measurements as given in patent publication US20070128217A1 (priority 2003, published 2007).

Key:
[1] = system: rabbit serum obtained by immunizing a rabbit with the SARS-CoV strain Frankfurt 1; format: binding; design: Binding of a rabbit serum to linear peptides / Binding of a rabbit serum to looped peptides / Rabbit serum linear peptides / Rabbit serum looped peptides / Binding of a rabbit serum to linear peptides of protein N of SARS-CoV Urbani (Rabbit serum linear peptides) / Binding of a rabbit serum to looped/cyclic peptides of protein N of SARS-CoV Urbani (Rabbit serum looped peptides): unit not given here
[2] = system: antibodies in sera from SARS patients (sera 1a, 1b, 2, 6, 37, 62, London, SARS-yellow, SARS-green); format: binding, human; design: Binding of serum 6 to linear peptides of protein X1 of SARS-CoV Urbani / Binding of serum 37 to linear peptides of protein X1 of SARS-CoV Urbani / Binding of serum 6 to looped/cyclic peptide (PEPSCAN-ELISA) / Binding of serum 37 to looped/cyclic peptide (PEPSCAN-ELISA) / Binding of serum 37 to looped/cyclic peptides of protein X1 of SARS-CoV Urbani / Binding of serum 6 to linear peptides of protein X2 / Binding of serum 37 to linear peptides of protein X2 / Binding of serum 37 to looped/cyclic peptides of protein X2 of SARS-CoV Urbani / Binding of serum 6 to linear peptides of protein M of SARS-CoV Urbani / Binding of serum 37 to linear peptides of protein M of SARS-CoV Urbani / Binding of serum 6 to looped/cyclic peptides of protein M of SARS-CoV Urbani / Binding of serum 37 to looped/cyclic peptides of protein M of SARS-CoV Urbani / Binding of serum 6 to linear peptides of protein X3 of SARS-CoV Urbani / Binding of serum 37 to linear peptides of protein X3 of SARS-CoV Urbani / Binding of serum 37 to looped/cyclic peptides of protein X3 of SARS-CoV Urbani / Binding of serum 6 to linear peptides of protein X4 of SARS-CoV Urbani / Binding of serum 37 to linear peptides of protein X4 of SARS-CoV Urbani / Binding of serum 37 to looped/cyclic peptides of protein X4 of SARS-CoV Urbani / Binding of serum 6 to linear peptides of protein X5 of SARS-CoV Urbani / Binding of serum 37 to linear peptides of protein X5 of SARS-CoV Urbani / Binding of serum 37 to looped/cyclic peptides of protein X5 of SARS-CoV Urbani / Binding of serum 6 to linear peptides of protein N of SARS-CoV Urbani / Binding of serum 37 to linear peptides of protein N of SARS-CoV Urbani / Binding of serum 6 to linear peptide (PEPSCAN-ELISA) / Binding of serum 1a to looped/cyclic peptides of protein N of SARS-CoV Urbani / Binding of serum 1b to looped/cyclic peptides of protein N of SARS-CoV Urbani / Binding of serum 2 to looped/cyclic peptides of protein N of SARS-CoV Urbani / Binding of serum 6 to looped/cyclic peptides of protein N of SARS-CoV Urbani / Binding of serum 37 to looped/cyclic peptides of protein N of SARS-CoV Urbani / Binding of serum 62 to looped/cyclic peptides of protein N of SARS-CoV Urbani / Binding of serum London to looped/cyclic peptides of protein N of SARS-CoV Urbani / Binding of serum SARS-green to looped/cyclic peptides of protein N of SARS-CoV Urbani: unit not given here
[3] = system: control sera (pooled serum of ten healthy LUMC hospital workers; commercial negative donor pooled serum from the Dutch bloodbank); format: binding, human; design: Binding of Control serum LUMC to linear peptides / Binding of Control serum Blood-bank to linear peptides / Binding of Control serum LUMC to looped peptides / Binding of Control Serum Blood-Bank to Looped peptides / Binding of Control serum LUMC to linear peptides of the protein M of SARS-CoV Urbani / Binding of Control serum Blood-bank to linear peptides of the protein M of SARS-CoV Urbani / Binding of Control serum LUMC to looped peptides of the protein M of SARS-CoV Urbani / Binding of Control Serum Blood-Bank to Looped peptides of the protein M of SARS-CoV Urbani: unit not given here

LYKGFQFICNLLLLF
Binding of a rabbit serum to linear peptides [1]: 0.2 | Binding of a rabbit serum to looped peptides [1]: 0.3 | Binding of serum 1a to linear peptides of protein X1 of SARS-CoV Urbani [2]: 0.6 | Binding of serum 1a to looped/cyclic peptide (PEPSCAN-ELISA) [2]: 0.5 | Binding of serum 1b to linear peptides of protein X1 of SARS-CoV Urbani [2]: 0.5 | Binding of serum 1b to looped/cyclic peptide (PEPSCAN-ELISA) [2]: 0.3 | Binding of serum 2 to linear peptides of protein X1 of SARS-CoV Urbani [2]: 0.5 | Binding of serum 2 to looped/cyclic peptide (PEPSCAN-ELISA) [2]: 0.3 | Binding of serum 6 to linear peptides of protein X1 of SARS-CoV Urbani [2]: 0.4 | Binding of serum 6 to looped/cyclic peptide (PEPSCAN-ELISA) [2]: 1.5 | Binding of serum 37 to linear peptides of protein X1 of SARS-CoV Urbani [2]: 0.5 | Binding of serum 37 to looped/cyclic peptide (PEPSCAN-ELISA) [2]: 0.4 | Binding of serum 62 to linear peptides of protein X1 of SARS-CoV Urbani [2]: 0.4 | Binding of serum 62 to looped/cyclic peptide (PEPSCAN-ELISA) [2]: 0.5 | Binding of serum London to linear peptides of protein X1 of SARS-CoV Urbani [2]: 0.2 | Binding of serum London to looped/cyclic peptide (PEPSCAN-ELISA) [2]: 1.7 | Binding of serum SARS-green to linear peptides of protein X1 of SARS-CoV Urbani [2]: 0.2 | Binding of serum SARS-green to looped/cyclic peptide (PEPSCAN-ELISA) [2]: 0.2 | Binding of serum SARS-yellow to linear peptides of protein X1 of SARS-CoV Urbani [2]: 0.4 | Binding of serum SARS-yellow to looped/cyclic peptide (PEPSCAN-ELISA) [2]: 0.3 | Binding of Control Serum Blood-Bank to Looped peptides [3]: 0.4 | Binding of Control serum Blood-bank to linear peptides [3]: 0.5 | Binding of Control serum LUMC to linear peptides [3]: 0.5 | Binding of Control serum LUMC to looped peptides [3]: 0.6

LYLYALIYFLQCINA
Binding of a rabbit serum to linear peptides [1]: 0.1 | Binding of a rabbit serum to looped peptides [1]: 0.5 | Binding of serum 1a to linear peptides of protein X1 of SARS-CoV Urbani [2]: 0.7 | Binding of serum 1a to looped/cyclic peptide (PEPSCAN-ELISA) [2]: 0.3 | Binding of serum 1b to linear peptides of protein X1 of SARS-CoV Urbani [2]: 0.5 | Binding of serum 1b to looped/cyclic peptide (PEPSCAN-ELISA) [2]: 0.3 | Binding of serum 2 to linear peptides of protein X1 of SARS-CoV Urbani [2]: 0.4 | Binding of serum 2 to looped/cyclic peptide (PEPSCAN-ELISA) [2]: 0.2 | Binding of serum 6 to linear peptides of protein X1 of SARS-CoV Urbani [2]: 0.3 | Binding of serum 6 to looped/cyclic peptide (PEPSCAN-ELISA) [2]: 0.3 | Binding of serum 37 to linear peptides of protein X1 of SARS-CoV Urbani [2]: 0.5 | Binding of serum 37 to looped/cyclic peptide (PEPSCAN-ELISA) [2]: 0.4 | Binding of serum 62 to linear peptides of protein X1 of SARS-CoV Urbani [2]: 0.5 | Binding of serum 62 to looped/cyclic peptide (PEPSCAN-ELISA) [2]: 0.4 | Binding of serum London to linear peptides of protein X1 of SARS-CoV Urbani [2]: 0.2 | Binding of serum London to looped/cyclic peptide (PEPSCAN-ELISA) [2]: 0.2 | Binding of serum SARS-green to linear peptides of protein X1 of SARS-CoV Urbani [2]: 0.2 | Binding of serum SARS-green to looped/cyclic peptide (PEPSCAN-ELISA) [2]: 0.2 | Binding of serum SARS-yellow to linear peptides of protein X1 of SARS-CoV Urbani [2]: 0.5 | Binding of serum SARS-yellow to looped/cyclic peptide (PEPSCAN-ELISA) [2]: 0.3 | Binding of Control Serum Blood-Bank to Looped peptides [3]: 0.5 | Binding of Control serum Blood-bank to linear peptides [3]: 0.5 | Binding of Control serum LUMC to linear peptides [3]: 0.5 | Binding of Control serum LUMC to looped peptides [3]: 0.4

LYMAISPKFTTSLSL
Binding of a rabbit serum to linear peptides [1]: 0.3 | Binding of a rabbit serum to looped peptides [1]: 0.5 | Binding of serum 1a to linear peptides of protein X2 [2]: 0.7 | Binding of serum 1a to looped/cyclic peptides of protein X2 of SARS-CoV Urbani [2]: 0.6 | Binding of serum 1b to linear peptides of protein X2 [2]: 0.5 | Binding of serum 1b to looped/cyclic peptides of protein X2 of SARS-CoV Urbani [2]: 0.5 | Binding of serum 2 to linear peptides of protein X2 [2]: 0.5 | Binding of serum 2 to looped/cyclic peptides of protein X2 of SARS-CoV Urbani [2]: 0.5 | Binding of serum 6 to linear peptides of protein X2 [2]: 0.3 | Binding of serum 6 to looped/cyclic peptides of protein X2 of SARS-CoV Urbani [2]: 0.5 | Binding of serum 37 to linear peptides of protein X2 [2]: 0.6 | Binding of serum 37 to looped/cyclic peptides of protein X2 of SARS-CoV Urbani [2]: 0.5 | Binding of serum 62 to linear peptides of protein X2 [2]: 0.6 | Binding of serum 62 to looped/cyclic peptides of protein X2 of SARS-CoV Urbani [2]: 0.7 | Binding of serum London to linear peptides of protein X2 [2]: 0.3 | Binding of serum London to looped/cyclic peptides of protein X2 of SARS-CoV Urbani [2]: 0.6 | Binding of serum SARS-green to linear peptides of protein X2 [2]: 0.5 | Binding of serum SARS-green to looped/cyclic peptides of protein X2 of SARS-CoV Urbani [2]: 0.4 | Binding of serum SARS-yellow to linear peptides of protein X2 [2]: 0.6 | Binding of serum SARS-yellow to looped/cyclic peptides of protein X2 of SARS-CoV Urbani [2]: 0.5 | Binding of Control Serum Blood-Bank to Looped peptides [3]: 0.7 | Binding of Control serum Blood-bank to linear peptides [3]: 0.6 | Binding of Control serum LUMC to linear peptides [3]: 0.3 | Binding of Control serum LUMC to looped peptides [3]: 0.8

MCKYTQSTALQELLI
Binding of a rabbit serum to linear peptides [1]: 0.2 | Binding of a rabbit serum to looped peptides [1]: 0.4 | Binding of serum 1a to linear peptides of protein X2 [2]: 0.8 | Binding of serum 1a to looped/cyclic peptides of protein X2 of SARS-CoV Urbani [2]: 0.6 | Binding of serum 1b to linear peptides of protein X2 [2]: 0.7 | Binding of serum 1b to looped/cyclic peptides of protein X2 of SARS-CoV Urbani [2]: 0.6 | Binding of serum 2 to linear peptides of protein X2 [2]: 0.6 | Binding of serum 2 to looped/cyclic peptides of protein X2 of SARS-CoV Urbani [2]: 0.5 | Binding of serum 6 to linear peptides of protein X2 [2]: 0.5 | Binding of serum 6 to looped/cyclic peptides of protein X2 of SARS-CoV Urbani [2]: 0.3 | Binding of serum 37 to linear peptides of protein X2 [2]: 0.6 | Binding of serum 37 to looped/cyclic peptides of protein X2 of SARS-CoV Urbani [2]: 0.7 | Binding of serum 62 to linear peptides of protein X2 [2]: 0.8 | Binding of serum 62 to looped/cyclic peptides of protein X2 of SARS-CoV Urbani [2]: 0.8 | Binding of serum London to linear peptides of protein X2 [2]: 0.5 | Binding of serum London to looped/cyclic peptides of protein X2 of SARS-CoV Urbani [2]: 0.2 | Binding of serum SARS-green to linear peptides of protein X2 [2]: 0.8 | Binding of serum SARS-green to looped/cyclic peptides of protein X2 of SARS-CoV Urbani [2]: 0.7 | Binding of serum SARS-yellow to linear peptides of protein X2 [2]: 0.7 | Binding of serum SARS-yellow to looped/cyclic peptides of protein X2 of SARS-CoV Urbani [2]: 0.4 | Binding of Control Serum Blood-Bank to Looped peptides [3]: 0.8 | Binding of Control serum Blood-bank to linear peptides [3]: 0.9 | Binding of Control serum LUMC to linear peptides [3]: 0.7 | Binding of Control serum LUMC to looped peptides [3]: 0.7

MCLKILVRYNTRGNT
Rabbit serum linear peptides [1]: 0.7 | Rabbit serum looped peptides [1]: 0.5 | Binding of serum 1a to linear peptides of protein X5 of SARS-CoV Urbani [2]: 0.8 | Binding of serum 1a to looped/cyclic peptides of protein X5 of SARS-CoV Urbani [2]: 0.5 | Binding of serum 1b to linear peptides of protein X5 of SARS-CoV Urbani [2]: 0.6 | Binding of serum 1b to looped/cyclic peptides of protein X5 of SARS-CoV Urbani [2]: 0.3 | Binding of serum 2 to linear peptides of protein X5 of SARS-CoV Urbani [2]: 0.8 | Binding of serum 2 to looped/cyclic peptides of protein X5 of SARS-CoV Urbani [2]: 0.5 | Binding of serum 6 to linear peptides of protein X5 of SARS-CoV Urbani [2]: 1.4 | Binding of serum 6 to looped/cyclic peptides of protein X5 of SARS-CoV Urbani [2]: 0.4 | Binding of serum 37 to linear peptides of protein X5 of SARS-CoV Urbani [2]: 0.9 | Binding of serum 37 to looped/cyclic peptides of protein X5 of SARS-CoV Urbani [2]: 0.5 | Binding of serum 62 to linear peptides of protein X5 of SARS-CoV Urbani [2]: 0.9 | Binding of serum 62 to looped/cyclic peptides of protein X5 of SARS-CoV Urbani [2]: 0.7 | Binding of serum London to linear peptides of protein X5 of SARS-CoV Urbani [2]: 0.8 | Binding of serum London to looped/cyclic peptides of protein X5 of SARS-CoV Urbani [2]: 0.4 | Binding of serum SARS-green to linear peptides of protein X5 of SARS-CoV Urbani [2]: 0.9 | Binding of serum SARS-green to looped/cyclic peptides of protein X5 of SARS-CoV Urbani [2]: 0.2 | Binding of serum SARS-yellow to linear peptides of protein X5 of SARS-CoV Urbani [2]: 0.7 | Binding of serum SARS-yellow to looped/cyclic peptides of protein X5 of SARS-CoV Urbani [2]: 0.8 | Binding of Control Serum Blood-Bank to Looped peptides [3]: 0.4 | Binding of Control serum Blood-bank to linear peptides [3]: 0.8 | Binding of Control serum LUMC to linear peptides [3]: 0.6 | Binding of Control serum LUMC to looped peptides [3]: 0.5
